Source: the supplement of paper PMC13380429
± gives the standard deviation of the averaged measurements.

Tests used:
Details in all cases: 72 h
[1] = tested on: Caco-2; experiment: relative viability EC50 (midpoint between 100% and the lowest measured viability); higher = less toxic
[2] = tested on: U2OS; experiment: as above
[3] = tested on: Vero E6; experiment: as above
[4] = tested on: Calu-3; experiment: as above
[5] = tested on: HepG2; experiment: as above
[6] = tested on: Caco-2; experiment: cell viability relative to DMSO; higher = less toxic
[7] = tested on: U2OS; experiment: as above
[8] = tested on: Vero E6; experiment: as above
[9] = tested on: Calu-3; experiment: as above
[10] = tested on: HepG2; experiment: as above
[11] = tested on: Caco-2; experiment: drug sensitivity score (DSS) for viability; higher = more toxic; extreme values may be limits of the assay
[12] = tested on: U2OS; experiment: as above
[13] = tested on: Vero E6; experiment: as above
[14] = tested on: Calu-3; experiment: as above
[15] = tested on: HepG2; experiment: as above

Row | SMILES | relative viability EC50 [1] [µM] | relative viability EC50 [2] [µM] | relative viability EC50 [3] [µM] | relative viability EC50 [4] [µM] | relative viability EC50 [5] [µM] | cell viability ([6]; 1 nM) [%] | cell viability ([6]; 10 nM) [%] | cell viability ([6]; 100 nM) [%] | cell viability ([6]; 1000 nM) [%] | cell viability ([6]; 10000 nM) [%] | cell viability ([7]; 1 nM) [%] | cell viability ([7]; 10 nM) [%] | cell viability ([7]; 100 nM) [%] | cell viability ([7]; 1000 nM) [%] | cell viability ([7]; 10000 nM) [%] | cell viability ([8]; 1 nM) [%] | cell viability ([8]; 10 nM) [%] | cell viability ([8]; 100 nM) [%] | cell viability ([8]; 1000 nM) [%] | cell viability ([8]; 10000 nM) [%] | cell viability ([9]; 1 nM) [%] | cell viability ([9]; 10 nM) [%] | cell viability ([9]; 100 nM) [%] | cell viability ([9]; 1000 nM) [%] | cell viability ([9]; 10000 nM) [%] | cell viability ([10]; 1 nM) [%] | cell viability ([10]; 10 nM) [%] | cell viability ([10]; 100 nM) [%] | cell viability ([10]; 1000 nM) [%] | cell viability ([10]; 10000 nM) [%] | drug sensitivity score [11] | drug sensitivity score [12] | drug sensitivity score [13] | drug sensitivity score [14] | drug sensitivity score [15]
1 | CCn1cc(C(=O)O)c(=O)c2cc(F)c(N3CCNCC3)cc21 [norfloxacin] | > 10 | > 10 | > 10 | > 10 | > 10 | 104 | 93.9 | 96.1 | 106 | 103 | 100 | 99.1 | 97.9 | 104 | 105 | 93.1 | 99.3 | 94.8 | 94.1 | 104 | 93.9 | 83.9 | 92.2 | 91.3 | 104 | 100 | 98.5 | 102 | 100 | 101 | 0 | 0 | 0 | 0 | 0
2 | CO[C@H]1/C=C/O[C@@]2(C)Oc3c(C)c(O)c4c(O)c(cc(O)c4c3C2=O)NC(=O)/C(C)=C\C=C\[C@H](C)[C@H](O)[C@@H](C)[C@@H](O)[C@@H](C)[C@H](OC(C)=O)[C@@H]1C [rifamycin-sv] | > 10 | > 10 | > 10 | > 10 | > 10 | 102.6 ± 0.71 | 101 ± 1.5 | 103 ± 2.9 | 103 ± 4.1 | 95.8 ± 5.3 | 101 ± 2.6 | 102 ± 3.1 | 100 | 105 ± 2.8 | 100 ± 1.8 | 99.5 ± 3.5 | 96.8 ± 1.3 | 99.4 ± 2.4 | 97.2 ± 2.3 | 99.3 ± 4.4 | 89.1 | 90.3 | 106 | 96.5 | 97 | 99.2 ± 5.4 | 92.7 ± 7.1 | 110 ± 4 | 88 ± 5.7 | 92.2 ± 7.7 | 0 | 0 | 0 | 0 | 0.25 ± 0.35
3 | COc1cc(-n2c(=S)[nH]c3ccccc3c2=O)c(Cl)cc1Cl [mdivi-1] | > 10 | > 10 | > 10 | > 10 | > 10 | 103 | 98.1 | 94.2 | 94.4 | 86.6 | 99.6 | 104 | 101 | 99.7 | 92.4 | 97.8 | 106 | 95.1 | 97.3 | 93 | 95.2 | 97.8 | 96.2 | 98.6 | 92.1 | 94.8 | 94.3 | 99.9 | 95.7 | 88.3 | 0.1 | 0 | 0 | 0 | 0
